The text below walks through data of US8124412B2, “Method of culturing conifer somatic embryos using S(+)-abscisic acid” (Cellfor Inc., priority 2005, dated 2012).

The test system of experiment [1] is Douglas fir somatic embryos. Description: Douglas fir somatic embryogenesis: maturation, germination and conversion after culture on S-ABA or S,R-ABA. It counts as cell-based, Pseudotsuga menziesii (Douglas fir). The method, then:
The culture medium used for Douglas fir was TX medium (see Table 1) with the following additives: glutamine 100 mg/L, casein hydrolysate 100 mg/L, and pH 5.8. The following compounds were added into the basal medium for Douglas fir somatic embryo development at different stages:
1) Solid maintenance medium: 9 μM 2,4-D and 4.5 μM BA, gellan gum 0.28%, sucrose 1%.
2) Liquid maintenance and bulking-up medium: 9 μM 2,4-D and 4.5 μM BA, different carbon sources for experiments.
3) Liquid pre-treatment medium: 20 (first week) or 30 μM ABA (second week), 10% PEG4000 (first week) or PEG1500 (second week), different carbon sources as described in examples below.
4) Solid maturation medium consisted of three media all with 0.02% NH4NO3 and the following:
Medium I. 40 μM ABA, 10% PEG 1500, maltose 2.5%, gellan gum 0.6%
Medium II. 60 μM ABA, 10% PEG1500, maltose 2.5% and sucrose 1%, gellan gum 0.8%
Medium III. 70 μM ABA, 6% PEG1500, sucrose 6%, gellan gum 1%.
The culture was kept in darkness at 23° C. Embryogenic tissue was sub-cultured once every two weeks onto solid maintenance medium. […]
5) Germination. The cultures were germinated at room temperature for 2 to 3 weeks on TX medium (Table 1), 0.5% gellan gum, 1 g/L NH4NO3 after which the germinants were hand selected and placed in low-light for 1 week and high-light for 7 weeks then planted in miniplugs and evaluated after 14 weeks.

In experiment [2] the test system is loblolly pine somatic embryos, line 76. Description: Loblolly pine: S-ABA concentration in preculture II medium and maturation medium. It counts as cell-based, Pinus taeda (loblolly pine). As to conditions: S-ABA 95% purity, line 76 (FIG. 6). The method, then:
The effect of S-ABA (95% purity) was tested in the loblolly pine pre-culture II medium followed by maturation medium. Somatic embryos of line 76 were cultured as described above; however, ABA was added to the pre-culture medium and maturation medium in the following treatments: […]

Experiment [3] deals with loblolly pine germinants/seedlings, line 76. Nature of the experiment: Loblolly pine merchantable miniplug seedlings in nursery after maturation treatments. It counts as in vivo, Pinus taeda (loblolly pine). As to conditions: line 76 (FIG. 5). As to the method:
The effect of the different kinds of ABA on the survival and vigour of germinants was investigated. The germinants were prepared as described above except that ABA in the maturation medium consisted of 95% and 98% purity S-ABA, which was used in the maturation medium at 60 and 120 μM concentration. The S,R-ABA (98% purity) was used at 60 and 120 μM concentration. Miniplug seedlings of merchantable quality were scored after 14 weeks in the nursery.

The subject of experiment [4] is loblolly pine somatic embryos, line 76. Description: Loblolly pine somatic embryo maturation: plantable germinants per gram of tissue plated. The format is cell-based, Pinus taeda (loblolly pine). The method, then:
The culture medium for loblolly pine was TX medium (see Table 1) with the following additives: Glutamine 2500 mg/L, casein hydrolysate 3000 mg/L, and pH 5.8. The following compounds were added into the basal medium for loblolly pine somatic embryo development at different stages:
1) Solid maintenance medium: 9 μM 2,4-D and 4.5 μM BA, gellan gum 0.3%, sucrose 1%, lactose 2%.
2) Liquid maintenance and bulking-up medium: 9 μM 2,4-D and 4.5 μM BA, 1% sucrose, 2% lactose.
3) Liquid pre-treatment medium: 1% sucrose, 2% lactose.
4) Preculture II medium. Lactose 2%, 1% sucrose
5) Solid maturation containing 1% gellan gum, and 2500 mg/L L-glutamine and 3000 mg/L casein hydrolysate, 3% sucrose. The maturation media contained different types of ABA and concentrations. S,R-ABA (98% purity) was tested at the previously determined optimum of 120 μM. S-ABA (90% purity) was tested at 60 μM and 120 μM. 0.3 grams of tissue were plated per petri-plate). Culture was for 18 weeks in the dark at room temperature. After, the embryos were desiccated for 1.5 hours in a stream of sterile air to a moisture content of less than 10%. Plates were stored at −28° C.
6) Germination. The filter papers with desiccated embryos attached were moved onto germination medium shown in Table 2, and cultured in the dark for 1 week then transferred to light. The numbers of germinants of suitable quality for planting were counted.

On to `CC1=CC(=O)CC(C)(C)[C@@]1(O)/C=C/C(C)=C\C(=O)O` (mixture of isomers) [S-ABA, (+)-cis,trans-Abscisic Acid], for which the “effect on maturation frequencies” value in experiment [1] (Douglas fir, S-ABA compared with S,R-ABA) is “similar”. In addition, the “conversion of embryos, increase compared to S,R-ABA” value in experiment [1] (one Douglas fir cell line with low conversion potential, embryos cultured on S-ABA vs S,R-ABA (FIG. 3)) is given as 2.5 fold. In experiment [2] (45 μM S-ABA in pre-culture medium to 90 μM in maturation medium), the “gradual increase in S-ABA compared to constant ABA throughout development” value was “superior”. For the same molecule, the “90 μM S-ABA maturation medium compared to 120 μM S-ABA maturation medium” value in experiment [2] is listed as “superior”. Moreover, in experiment [3] (60 μM 98% purity S-ABA, after 14 weeks in nursery), the “mean % merchantable seedlings, rank among treatments” value was “significantly the is highest”. For the same molecule, the “merchantable seedlings, compared to the 60 μM S,R-ABA treatment” value in experiment [3] (120 μM S-ABA, after 14 weeks in nursery) is “more optimal”. The “mean % merchantable seedlings, compared to the S,R-ABA treatments” value in experiment [3] (all S-ABA treatments (95% and 98% purity, 60 and 120 μM), scored after 14 weeks in nursery) is “higher”. Also, the “number of plantable germinants per gram of tissue plated, compared to 120 μM S,R-ABA” value in experiment [4] (60 μM S-ABA (90% purity) in maturation medium, loblolly line 76 (FIG. 4)) was “significantly higher”. Also, the “number of plantable germinants, compared to 120 μM S,R-ABA” value in experiment [4] (120 μM S-ABA (90% purity) in maturation medium, loblolly line 76 (FIG. 4)) is “double”.
In the case of `CC1=CC(=O)CC(C)(C)C1(O)/C=C/C(C)=C\C(=O)O` (stereo not shown) [S,R-ABA, reference compound], in experiment [4] (loblolly pine, S,R-ABA 98% purity, previously determined), the “optimum concentration in maturation medium” value stood at 120 µM.
